Test results reported in ChEMBL document CHEMBL5154882, “Discovery of 4-Hydroxyquinazoline Derivatives as Small Molecular BET/PARP1 Inhibitors That Induce Defective Homologous Recombination and Lead to Synthetic Lethality for Triple-Negative Breast Cancer Therapy” (J Med Chem, 2022).
Activity calls are given as the source filed them. The rule behind the calls is not given here.

Legend:
MDA-MB-468 [1] = experiment: Cell cycle arrest in human MDA-MB-468 cells assessed as accumulation at S phase at 5 uM incubated for 72 hrs by propidium iodide staining-based flow cytometry analysis (reference value: 21.1%); type: functional
MDA-MB-468 [2] = experiment: Cell cycle arrest in human MDA-MB-468 cells assessed as accumulation at S phase at 20 uM incubated for 72 hrs by propidium iodide staining-based flow cytometry analysis (reference value: 21.1%); type: functional
MDA-MB-468 [3] = experiment: Inhibition of homologous recombinant repair in human MDA-MB-468 cells assessed as down-regulation of p-RPA32 expression at 5 to 20 uM in by Western blot analysis; type: functional, cell-based; settings: dose 5-20 µM
MDA-MB-231 = experiment: Antitumor activity against human MDA-MB-231 cells xenografted in BALB/c nude mouse assessed as reduction in Rad51 expression at 40 to 80 mg/kg incubated for 30 to 40 mins by immunohistochemical analysis; type: functional, organism-based; settings: dose 40-80 mg/kg, time 30-40 min

With `COc1cc(OC)c2c(=O)[nH]c(-c3cccc(Cc4n[nH]c(=O)c5ccccc45)c3)nc2c1` the Activity (MDA-MB-468 [1]) was 22.2%, the Activity (MDA-MB-468 [2]) was 12.4% and the inhibition (MDA-MB-468 [3]) was “Active”. The Activity (MDA-MB-231) was “Active”.
